Test results: patent US6664290B1, “Oral or vaginal administration of mesoprostol in third stage labor” (University College London, priority 1994, dated 2003)
Like-named read-outs stand apart in the source and are kept apart here.

How the values were obtained:
[1] = cited from earlier work; for Time of peak plasma levels: oral, substantially the same if administered vaginally
[2] = system: women in the third stage of labour; type: in vivo
Excerpt: The study protocol was reviewed and approved by the local Ethics Committee. Information sheets explaining the aims of the trial were distributed to potential participants either in the antenatal classes, antenatal clinics, and the Day Assessment Area. On admission to labour ward women were reminded about the trial and a written informed consent was obtained if they still wished to participate in the study.
The main objective of this study was to estimate the incidence of primary postpartum haemorrhage (PPH). This was defined as estimated blood loss of or more than 500 ml. Other measures of blood loss were also considered e.g. severe PPH i.e. >1000 ml; secondary PPH (after 24 hours); need for blood transfusion; use of therapeutic oxytocics (i.e. the need for extra oxytocics); length of third stage; incidence of manual removal of placenta; the need for subsequent evacuation of the retained products of conception; and the change in haemoglobin and packed cell volume in those who had instrumental delivery and/or who had blood loss of 500 ml or more compared to the Haemoglobin done late in pregnancy. Potential adverse effects of the drug used were also recorded e.g. incidence of vomiting, diarrhoea, shivering and hypertension (defined as diastolic blood pressure >100 or Systolic Blood pressure >150). All of these measures were documented by the midwife on call on a specially designed form with demographic information and information related to the type and circumstances of delivery.
The principle criteria for exclusion were: placenta praevia, multiple pregnancy, intrauterine death, gestational age less than 32 weeks gestation, women with previous PPH and women in their sixth pregnancy or more. In this pilot study, women with hypertension, preeclampsia or pregnancy induced hypertension were also excluded.
Syntometrine was not given but midwives were instructed to do so if they felt there was a clinical indication. Otherwise the delivery of the placenta was managed according to hospital policy (active management policy). Blood loss was estimated clinically by the attendant midwife or obstetrician. A sample of venous blood was obtained two days later after birth for haemoglobin and packed cell volume assessment from women who had instrumental delivery or from those who had blood loss of 500 ml or more. A record was kept of the last recorded blood pressure and temperature before birth and one hour after delivery.
Categorical variables are summarised as numbers and percentages, whereas continuous variables that are normally distributed are presented as means and standard deviations (SD), continuous variables that are not normally distributed are presented as medians and interquartile ranges (IQR). Comparisons between the systolic, diastolic blood pressure, haemoglobin, haematocrit and temperature before and after delivery were conducted via the paired t-test. Association between two categorical variables was assessed via Chi-square testing. The significance level was set to the 5% level.

[3] = system: blood pressure; assay: Blood pressure effect of Misoprostol in humans; type: in vivo, human; details: administered to humans; dosages up to 800 μg
[4] = system: blood pressure; details: patients; about 400 μg; cited from earlier work
[5] = system: blood pressure; details: animal studies; about 800 μg in a single dose; cited from earlier work
[6] = system: uterus (uterotonic contraction); details: intramuscular route, as part of Syntometrine; cited from earlier work
[7] = after delivery (one hour), 600 μg oral, n = 184
[8] = after minus before delivery, n = 184
[9] = before delivery (last recorded, before drug), n = 184
[10] = one hour after delivery vs last measured before delivery, not statistically significant

For `CCCCC(C)(O)C/C=C/[C@H]1[C@H](O)CC(=O)[C@@H]1CCCCCCC(=O)O` (mixture of isomers) [Misoprostol acid], the “Time of peak plasma levels” value [1] is listed as “less than fifteen”.

In the case of `CCCCC(C)(O)C/C=C/[C@H]1[C@H](O)CC(=O)[C@@H]1CCCCCCC(=O)OC` (mixture of isomers) [Misoprostol], the “Number with blood loss >= 500 ml” value ([2]; 600 μg Misoprostol orally immediately after delivery, n = 237) is reported as 13, the Cases of infection ([2]; 600 μg oral) is reported as “no cases” and the “Incidence of shivering: patients who had epidural anaesthesia vs those who had not” value ([2]; 600 μg oral) is reported as “no significant difference”. For the same compound, the “Incidence of vomiting relative to that reported when syntometrine is used” value ([2]; 600 μg oral) was “almost half”, the “% with blood loss > 1000 ml” value ([2]; 600 μg oral, n = 237) was “(0%)” and the “% with blood loss greater than 500” value ([2]; 600 μg oral, n = 237) was 3%. For the same compound, the “% with diastolic - 100 (mm Hg)” value ([2]; 600 μg oral, n = 237) was “(0%)”, the “% with haemoglobin < 9 (g/l)” value ([2]; 600 μg oral, n = 237) was “(2%)” and the “% with systolic - 150 (mm Hg)” value ([2]; 600 μg oral, n = 237) was “(1%)”. For the same compound, the “% with third stage length >= 30 minutes” value ([2]; 600 μg oral, n = 237) was “(0.5%)”, the “Median (IQR) of blood loss” value ([2]; 600 μg oral, n = 237) was 200 mL and the “Median (IQR) third stage length” value ([2]; 600 μg oral, n = 237) was 5 min. The “Number who had shivering” value ([2]; 600 μg oral, n = 237) was 148, the “Number with blood loss > 1000 ml” value ([2]; 600 μg oral, n = 237) was 0 and the “Number with blood loss greater than 500” value ([2]; 600 μg oral, n = 237) was 6. For the same compound, the “Number with diastolic - 100 (mm Hg)” value ([2]; 600 μg oral, n = 237) was 0, the “Number with haemoglobin < 9 (g/l)” value ([2]; 600 μg oral, n = 237) was 4 and the “Number with manual removal of placenta” value ([2]; 600 μg oral, n = 237) was 4. The “Number with repeat syntometrine injection” value ([2]; 600 μg oral, n = 237) was 12, the “Number with systolic - 150 (mm Hg)” value ([2]; 600 μg oral, n = 237) was 2 and the “Number with third stage length >= 30 minutes” value ([2]; 600 μg oral, n = 237) was 1. For the same compound, the “Patients for whom blood transfusion was required” value ([2]; 600 μg oral, n = 237) was 2 patients, the “Number who had diarrhoea (loose stool)” value ([2]; 600 μg oral, n = 237, first 24 hours after delivery) was 7 and the Number who vomited ([2]; 600 μg oral, n = 237, first hour after delivery) was 19. For the same compound, the Duration of shivering ([2]; 600 μg oral, self-limiting, twenty minutes after swallowing the tablets) was 10 to 15 min, the “Temperature, mean” value ([2]; after delivery (one hour), 600 μg oral, n = 182) was 37.1 C and the “Diastolic blood pressure, mean” value [2, 7] was 73.0 mm Hg. The “Systolic blood pressure, mean” value [2, 7] was 118.4 mm Hg, the “Haematocrit, mean” value ([2]; after delivery, 600 μg oral, n = 73) was 0.33 and the “Haematocrit, mean difference” value ([2]; after minus before delivery, n = 73) was −0.01. For the same compound, the “Temperature, mean difference (increase)” value ([2]; after minus before delivery, n = 182) was 0.5 C, the “Diastolic blood pressure, mean difference” value [2, 8] was −0.8 mm Hg and the “Systolic blood pressure, mean difference” value [2, 8] was −1.0 mm Hg. The “Diastolic blood pressure, mean” value [2, 9] was 73.8 mm Hg, the “Systolic blood pressure, mean” value [2, 9] was 119.3 mm Hg and the “Haematocrit, mean” value ([2]; before delivery, n = 73) was 0.34. The “Temperature, mean” value ([2]; before delivery, n = 182) was 36.6 C, the “Mean reduction of diastolic blood pressure (SE)” value [2, 10] was 0.8 (0.6) mm Hg and the “Mean reduction of systolic blood pressure (SE)” value [2, 10] was 1.0 (SE=0.9) mm Hg. For the same compound, the Hypertensive effects ([2]; women who were normotensive before labour, 600 μg oral) was “could not identify any hypertensive effects”, the Hypertensive effect [3] was “not hypertensive” and the “Unchanged drug in the plasma or urine after use” value ([1]; extensive metabolism during and/or prior to gastro intestinal absorption) was “no unchanged drug is detected”. For the same compound, the “Time of peak plasma levels” value [1] was “less than fifteen”, the “Effect on blood pressure” value [4] was “substantially normotensive” and the “Effect on blood pressure” value [5] was “mild hypotensive effect”.

In the case of `CC[C@H](C)[C@@H]1NC(=O)[C@H](Cc2ccc(O)cc2)NC(=O)[C@@H](N)CSSC[C@@H](C(=O)N2CCC[C@H]2C(=O)N[C@@H](CC(C)C)C(=O)NCC(N)=O)NC(=O)[C@H](CC(N)=O)NC(=O)[C@H](CCC(N)=O)NC1=O` [syntocinon], the Time to action [6] is given as “about 2.5 minutes”.
